This series is described as follows: in vitro. Conditions: human, hela cells, % viability.
In general, viability refers to a read-out of living cells in per cent, often relative to untreated cells. On to `COc1cc2ccccc2cc1C(=O)Nc1nnc(-c2ccncc2)o1` [CBK287432], for which the viability at 28.5 h, 10 µM came to 93.1%.
With `CN1CC(C(=O)NCC(c2ccccc2)N2CCCCCC2)CC1=O` (centres unmarked) [CBK282008], the viability at 28.5 h, 10 µM stood at 105%.
Next, `c1ccc2c3c([nH]c2c1)C12CCN(CC1)C(c1ccncc1)N2CC3` (centres unmarked) [CBK284434]: 88.5%; `Cc1ccc(C2CCCN2C(=O)c2cccn(CC(=O)NC3CCCCC3)c2=O)cc1C` (centres unmarked) [CBK286009]: 92.2%; `CC(=O)N(C)c1ncc(Br)cc1C(=O)N(C)C` [CBK076533]: 97.1%.
For `Cn1ccc(C(=O)N2CCCC3(C/C=C/Cc4ccccc4OCC(=O)NC3)C2)cc1=O` (centres unmarked) [CBK292179] the value was 107%; for `Cc1cc(NC(=O)CN(C)CCNC(=O)C2CCCC2)no1` [CBK305237], 84.9%.
As for `CCCn1nc(C)c(-c2cncn2CCc2c(C)nn(C)c2C)c1C` [CBK281475], the viability at 28.5 h, 10 µM amounted to 91.5%.
Next, `CC(C)OCC(O)Cn1c(NC2CCCCC2)nc2c1c(=O)[nH]c(=O)n2C` (centres unmarked) [CBK140893]: 107%; `Brc1ccc(C2(c3nnc(C4CC4)o3)CCOCC2)cc1` [CBK305498]: 98.2%; `Cc1ccccc1COc1cccc(Cl)c1Cl` [CBK002607]: 90.6%.
For `CCC(CN1CCN(C)CC1)NC(=O)Cc1ccc2c(c1)CCC2` (centres unmarked) [CBK282784] the value was 92.2%; for `Cc1nnc(N2C(=O)c3oc4ccccc4c(=O)c3C2c2ccc(OCc3ccccc3)cc2)s1` (centres unmarked) [CBK266287], 94.9%.
Next, `CCn1c(=O)n(CC(=O)N2C(C)CCCC2C)c2cccnc21` (centres unmarked) [CBK283825]: 102%.
With `CCN1CCN(C(=O)c2ccc(CN(c3ccc(C)c(C)c3)S(C)(=O)=O)cc2)CC1` [CBK267132], the viability at 28.5 h, 10 µM was 92.6%.
For `Cc1ccc(S(=O)(=O)Nc2ccc3[nH]ccc3c2)cc1` [CBK153519] the value was 92.5%; for `O=C1CCC(=O)N1CCOc1nccnc1OC1CCN(CCc2ccc3ccccc3c2)CC1` [CBK084358], 99.4%; for `CCOc1ccc(CNc2ccc(C3c4ccsc4CCN3C(=O)COC)cc2)cc1` (centres unmarked) [CBK286453], 85.3%.
With `COc1cc(NC(=O)N2CCN(CCc3ccccc3)CC2)cc(OC)c1OC` [CBK158933], the viability at 28.5 h, 10 µM was 100%.
Turning to `Cc1ccc(C(=O)Nc2cccc(OC(=O)c3cc(S(=O)(=O)N4CCCCC4)ccc3Cl)c2)cc1` [CBK261368], the viability at 28.5 h, 10 µM was 97.8%.
Next, `Cc1ccc(OCC(=O)NC(Cc2ccccc2)C(=O)O)cc1` (centres unmarked) [CBK217681]: 102%.
Regarding `CNC(=O)CCCc1[nH]nc(O)c1Cc1c(Cl)cccc1Cl` [CBK085827], the viability at 28.5 h, 10 µM amounted to 89.4%.
Turning to `O=C(N1CCOCC1)C12CC3CC(CC(C3)C1)C2` [CBK089368], the viability at 28.5 h, 10 µM stood at 90.3%.
Next, `FC(F)(F)c1cnc(Oc2ccc(-n3ccnc3)cc2)c(Cl)c1` [CBK161625]: 90.9%.
For `Nc1cc(=O)[nH]c(=O)n1CCc1ccccc1` [CBK269984] the value was 86%; for `CCCc1nnc2sc(C3CCC(=O)N(CC(C)C)C3)nn12` (centres unmarked) [CBK307207], 95.6%; for `CC(C)Nc1nc(C#N)nc(NC(C)C)n1` [CBK027421], 84.7%.
Next, `Clc1ccccc1CN1CCC(n2cnc3cccnc32)CC1` [CBK283967]: 105%.
Turning to `CS(=O)(=O)Nc1cc(-c2noc([C@@H]3CCCN3Cc3ccccn3)n2)ccn1` [CBK288885], the viability at 28.5 h, 10 µM amounted to 87.3%.
Regarding `Nc1ncc(-c2cc(C(F)(F)F)cc(C(F)(F)F)c2)nc1Nc1ccc2[nH]ccc2c1` [CBK063651], the viability at 28.5 h, 10 µM is 71.9%.
Regarding `Cc1csc2c(C3CCCN(C(=O)c4cccnc4)C3)nc(C)n12` (centres unmarked) [CBK283329], the viability at 28.5 h, 10 µM is 93.4%.
Take `Cc1cc2cc3c(nc2cc1C)OCCNC3` [CBK281939]: the viability at 28.5 h, 10 µM came out at 97.1%.
As for `COc1ccc(/C(C#N)=C/c2ccc(-c3ccc(C(=O)O)cc3)o2)cc1OC` [CBK268953], the viability at 28.5 h, 10 µM was found to be 108%.
In the case of `CN1CCN(C(=O)c2ccccc2NC(=O)NC2CCCCC2)CC1` [CBK269771], the viability at 28.5 h, 10 µM turned out to be 94%.
Next, `O=C(c1ccc(F)cc1)[C@H]1CCCN(C(=O)c2ccco2)C1` [CBK284328]: 80.7%; `CCOc1cccc(-c2cncc(NCCO)n2)c1` [CBK066075]: 81%; `COc1cc(Nc2cncc(-c3ccc4ccccc4c3)n2)cc(OC)c1OC` [CBK065176]: 61.7%.
For `O=C(O)c1cccnc1SC1CC(=O)N(Cc2ccccc2)C1=O` (centres unmarked) [CBK263375] the value was 119%; for `CC[C@H]1CN(C(=O)c2cccnc2)CC[C@H]1CC(=O)NCc1ccc(F)cc1` [CBK289143], 88.6%.
For `Fc1cc2c3c(c1)c1c(n3CCO2)CCNCC1` [CBK018018C] the value was 102%; for `O=C(O)CCSc1nc2ccccc2[nH]1` [CBK262056], 96.2%.
As to `CC(=O)NCCCCCC(=O)Nc1ccc(C(=O)O)cc1` [CBK287241], the viability at 28.5 h, 10 µM came out at 101%.
For `O=C(NC(N1CCCCC1)C(Cl)(Cl)Cl)c1ccc(Cl)cc1Cl` (centres unmarked) [CBK261024] the value was 91.6%; for `Cc1c(S(=O)(=O)NC(C)CCCC(C)(C)O)sc2ccc(Cl)cc12` (centres unmarked) [CBK062467], 93.5%.
In the case of `Cn1ncc(Cl)c1C1CCCCCN1S(=O)(=O)c1ccc2[nH]c(=O)[nH]c(=O)c2c1` (centres unmarked) [CBK286303], the viability at 28.5 h, 10 µM came to 102%.
For `COc1ccc(CC(=O)NCC(c2cccs2)N2CCOCC2)cc1F` (centres unmarked) [CBK305618] the value was 99.5%; for `O=[N+]([O-])c1ccc(NCCCNS(=O)(=O)c2ccc(Cl)cc2)c(Cl)c1` [CBK262543], 90.6%.
As for `CCN(CC)C(=O)CCn1c(-c2ccc(C)nc2)cc2cccnc21` [CBK282150], the viability at 28.5 h, 10 µM was 87.2%.
For `O=C(Nc1ccc(-c2nc(-c3ccccc3)c3cc(NC(=O)c4cccs4)ccc3n2)cc1)c1cccs1` [CBK261547] the value was 86%; for `Cc1cc(C)n2c(SCC(=O)O)nnc2n1` [CBK027406], 108%.
`CN(C)CCOc1ccc2c(c1)OC1(CCN(C(=O)c3ccc4sc(N)nc4c3)CC1)CC2=O` [CBK169380]: the viability at 28.5 h, 10 µM is 91.4%.
Regarding `CC(C)(C)SCC(=O)c1ccc2c(c1)CCC(=O)N2` [CBK006168], the viability at 28.5 h, 10 µM was determined as 104%.
In the case of `CC(NCCCN(C)C)=C1C(=O)c2ccccc2C1=O` [CBK262674], the viability at 28.5 h, 10 µM was determined as 81.6%.
Next, `CC1CCCCC1NC(=O)Cn1ncc2cccn2c1=O` (centres unmarked) [CBK283673]: 98.7%; `O=C(c1cnccn1)N1CCC(Cc2ccccc2)CC1` [CBK200181]: 92.6%; `CCc1ccc2occ(CC(=O)Nc3ccc(C(=O)OC)cc3)c2c1` [CBK268318]: 105%.
On to `COc1ccc2c(c1)c(C(C(=O)O)N1CCN(c3ccccn3)CC1)cn2CC(=O)O` (centres unmarked) [CBK286637], for which the viability at 28.5 h, 10 µM is 98%.
For `Cc1cc(C(=O)NCc2ccnc(N3CCOCC3)c2)c(C)n1-c1cccc(Cl)c1` [CBK298301] the value was 81.9%; for `COc1ccccc1N1C(=O)[C@H]2N=C(C(=O)c3cnccn3)N[C@H]2C1=O` [CBK021406], 90.3%; for `Cc1cc(C(=O)Nc2ccc(S(=O)(=O)Nc3onc(C)c3C)cc2)no1` [CBK268166], 95.3%.
In the case of `CCOC(=O)c1ccsc1NC(=O)C1CC=CCC1C(=O)O` (centres unmarked) [CBK270291], the viability at 28.5 h, 10 µM stood at 97.5%.
Consider `CC(C)C(=O)Nc1cccc(NC(=O)COc2ccc(Br)cc2)c1` [CBK265211], for which the viability at 28.5 h, 10 µM stood at 94%.
For `Cn1c2c(ccc1=O)CCCCC2` [CBK005987] the value was 92%; for `COCCNc1nc(-c2cc(C(C)C)ccc2OC)ccc1C(=O)NCCNC(C)=O` [CBK105985], 96.6%; for `COc1ccc(-c2ccc(CCC(=O)O)n2Cc2ccco2)cc1` [CBK265945], 92.6%.
For `Cc1cc(=O)oc2cc(NC(=S)NNC(=O)c3ccc4c(c3)c(C)c(C)n4Cc3ccccc3)ccc12` [CBK267138] the value was 89.6%; for `CCCCC(=O)NC(Nc1cc(C)ccn1)(C(F)(F)F)C(F)(F)F` [CBK009331], 79.6%.
With `Cc1cc(C(=O)CSc2nnc(N3CCCC3)n2C2CC2)c(C)n1C` [CBK306051], the viability at 28.5 h, 10 µM is 65.1%.
Next, `CN(C)C(=O)CN1CCC2(CC1)CN(S(C)(=O)=O)c1ccccc12` [CBK126686]: 97.7%; `Cc1ccc(NC(=O)c2cnc3sccn3c2=O)cc1` [CBK287448]: 93.1%.
Take `O=C(CN1CCCC2(CCN(C(=O)c3ccoc3)C2)C1)Nc1ncccn1` (centres unmarked) [CBK137140]: the viability at 28.5 h, 10 µM was found to be 102%.
Next, `CC(C)c1ccc2c(c1)C(N1CCN(C)CC1)Cc1cccnc1S2` (centres unmarked) [CBK026244G]: 98.7%.
Next, `CCOc1ccc(Cc2nnnn2CC(=O)O)cc1` [CBK286677]: 91.2%; `O=C(NC(C(=O)O)c1ccccc1)NC12CC3CC(CC(C3)C1)C2` (centres unmarked) [CBK268313]: 109%; `COc1ccc(OC)c(-n2c(SCC(=O)N3CCC(C(=O)O)CC3)nc3ccccc3c2=O)c1` [CBK296981]: 87.5%.
For `CC(NC(=O)CCc1ccncc1)c1ccc2c(c1)CCCO2` (centres unmarked) [CBK281624] the value was 88.3%.
As for `CCc1ccc(NC(=N)Nc2nc(CSc3ncccn3)cc(=O)[nH]2)cc1` [CBK268836], the viability at 28.5 h, 10 µM is 88.1%.
Next, `COc1ccc(-c2cnc(N)c(N[C@@H](C)c3ccccc3)n2)c(OC)c1OC` [CBK063763]: 84.9%.
For `O=C(c1ccncc1)c1ccc(N2CCN(C3CC(=O)N(Cc4ccccc4)C3=O)CC2)cc1` (centres unmarked) [CBK268934] the value was 106%; for `Ic1cnn(Cc2nc(-c3ccccc3)no2)c1` [CBK269901], 90.3%.

The record behind these values is paper PMC12040169 (PLOS Biology, 2025).
